Test results reported in patent US9586978B2, “Anti-viral compounds” (AbbVie Inc., priority 2009, dated 2017).
Where two headings read alike, the source gives them in different places.

Key:
Assay type in all cases: cell-based, Hepatitis C virus
HCV genotype 3a replicon = HCV genotype 3a replicon assay; details: Hepatitis C virus, read-out: EC50 (nM, in the absence of HP) 3a, absence of human plasma; Table 5
From the text: (§1) [drawing 14] employs a biphenyl linker between the imidazole moieties. See WO2008021927(BMS). The EC50 values of BMS-790052 against different HCV genotypes were shown by Nettles et al., “BMS-790052 is a First-in-class Potent Hepatitis C Virus (HCV) NS5A Inhibitor for Patients with Chronic HCV Infection: Results from a Proof-of-concept Study”, 59th Annual Meeting of the American Association for the Study of Liver Diseases (Oct. 31-Nov. 1, 2008, San Francisco, Calif.; www.natap.org/2008/AASLD/AASLD_06.htm). […] See also Gao et al., NATURE 465:96-100 (2010). The compounds in Table 1 use different linkers between the imidazole moieties. Table 1 depicts the EC50 values of these compounds when tested using respective replicon assays in the presence of 5% (v/v) fetal bovine serum (FBS).

HCV genotype 2b replicon = HCV genotype 2b replicon assay; details: Hepatitis C virus, absence of human plasma; Table 5; read-out: EC50 (nM, in the absence of HP) 2b
From the text: as §1

HCV genotype 1b replicon = HCV genotype 1b replicon assay; details: Hepatitis C virus
From the text: as §1
(§2) Table 2 compares compounds containing unsubstituted benzimidazole to those containing halo-substituted benzimidazole. Anti-viral activities were assessed using wild-type replicons (e.g., 1b WT or 1a WT) as well as replicons containing specific NS5A mutations (e.g., 1b L28T, 1b Y93H, 1a L31V, 1a Y93C, 1a M28V, or 1a Q30E) in the absence of FBS.
(§3) Table 3 compares compounds with different linkers between the benzimidazole moieties. Anti-viral activities were determined using 1a and 1b replicon assays. “HP” refers to human plasma. […] As compared to the phenyl linker

HCV genotype 4a replicon = HCV genotype 4a replicon assay; details: Hepatitis C virus, absence of human plasma; Table 5; read-out: EC50 (nM, in the absence of HP) 4a
From the text: as §1

HCV genotype 2a replicon = HCV genotype 2a replicon assay; details: Hepatitis C virus, absence of human plasma; Table 5; read-out: EC50 (nM, in the absence of HP) 2a
From the text: as §1

HCV genotype 1a replicon = HCV genotype 1a replicon assay; details: Hepatitis C virus
From the text: as §1, §2, §3

[1] = 40% human plasma, Table 5, read-out: EC50 (nM, in the presence of 40% HP) 1b
[2] = 40% human plasma, Table 5, read-out: EC50 (nM, in the presence of 40% HP) 1a

SMILES | EC50 (HCV genotype 3a replicon) [nM] | EC50 (HCV genotype 2b replicon) [nM] | EC50 (HCV genotype 1b replicon; [1]) [nM] | EC50 (HCV genotype 4a replicon) [nM] | EC50 (HCV genotype 2a replicon) [nM] | EC50 (HCV genotype 1a replicon; [2]) [nM] | also measured
COC(=O)N[C@H](C(=O)N1CCC[C@H]1c1nc2cc([C@H]3CC[C@H](c4ccc5[nH]c([C@@H]6CCCN6C(=O)[C@@H](NC(=O)OC)C(C)C)nc5c4)N3c3ccc(C4CC4)cc3)ccc2[nH]1)C(C)C | ≤ 0.05 | ≤ 0.05 | 0.3 | ≤ 0.05 | ≤ 0.05 | 0.1 | –
COC(=O)N[C@H](C(=O)N1CCC[C@H]1c1nc2cc([C@H]3CC[C@H](c4ccc5[nH]c([C@@H]6CCCN6C(=O)[C@@H](NC(=O)OC)C(C)C)nc5c4)N3c3ccc(C4CC4)c(F)c3)ccc2[nH]1)C(C)C | ≤ 0.05 | ≤ 0.05 | 0.1 | ≤ 0.05 | ≤ 0.05 | 0.1 | –
COC(=O)N[C@H](C(=O)N1CCC[C@H]1C(=O)Nc1ccc([C@@H]2CC[C@@H](c3ccc(NC(=O)[C@@H]4CCCN4C(=O)[C@@H](NC(=O)OC)C(C)C)cc3)N2)cc1)C(C)C | – | – | – | – | – | – | EC50 (HCV genotype 1b replicon; 5% FBS and 40% human plasma, Table 4, read-out: EC50 (nM, in the presence of 5% FBS and 40% HP) 1b): 2400 nM; EC50 (HCV genotype 1b replicon; 5% FBS, Table 4, read-out: EC50 (nM, in the presence of 5% FBS) 1b): 320 nM; EC50 (HCV genotype 1a replicon; 5% FBS and 40% human plasma, Table 4, read-out: EC50 (nM, in the presence of 5% FBS and 40% HP) 1a): 1200 nM; EC50 (HCV genotype 1a replicon; 5% FBS, Table 4, read-out: EC50 (nM, in the presence of 5% FBS) 1a): 290 nM
COC(=O)N[C@H](C(=O)N1CCC[C@H]1c1nc2cc([C@H]3CC[C@H](c4ccc5[nH]c([C@@H]6CCCN6C(=O)[C@@H](NC(=O)OC)C(C)C)nc5c4)N3c3ccc(N4CCCCC4)c(C(F)(F)F)c3)ccc2[nH]1)C(C)C | ≤ 0.05 | ≤ 0.05 | 0.3 | ≤ 0.05 | 0.5 | 0.6 | –
COC(=O)N[C@H](C(=O)N1CCC[C@H]1c1nc2cc([C@H]3CC[C@H](c4ccc5[nH]c([C@@H]6CCCN6C(=O)[C@@H](NC(=O)OC)C(C)C)nc5c4)N3c3cc(F)c(N4C[C@H]5CCCC[C@H]5C4)c(F)c3)ccc2[nH]1)C(C)C [Example 4.3, methyl{(2S)-1-[(2S)-2-{5-[(2R,5R)-1-{3,5-difluoro-4-[(3aR,7aS)-octahydro-2H-isoindol-2-yl]phenyl}-5-{2-[(2S)-1-{(2S)-2-[(methoxycarbonyl)amino]-3-methylbutanoyl}pyrrolidin-2-yl]-1H-benzimidazol-5-yl}pyrrolidin-2-yl]-1H-benzimidazol-2-yl}pyrrolidin-1-yl]-3-methyl-1-oxobutan-2-yl}carbamate] | – | – | 0.2 | – | – | 0.1 | –
COC(=O)N[C@H](C(=O)N1C[C@@H](OC)C[C@H]1c1nc2cc([C@H]3CC[C@H](c4ccc5[nH]c([C@@H]6C[C@H](OC)CN6C(=O)[C@@H](NC(=O)OC)C(C)C)nc5c4)N3c3ccc(C(C)(C)C)cc3)ccc2[nH]1)C(C)C | – | – | 0.8 | – | – | 0.3 | –
COC(=O)N[C@H](C(=O)N1CCC[C@H]1c1nc2ccc([C@H]3CC[C@H](c4ccc5nc([C@@H]6CCCN6C(=O)[C@@H](NC(=O)OC)C(C)C)[nH]c5c4)N3c3ccc(C4CC4)cc3F)cc2[nH]1)C(C)C | ≤ 0.05 | ≤ 0.05 | 0.2 | ≤ 0.05 | ≤ 0.05 | 0.1 | –
COC(=O)N[C@H](C(=O)N1CCC[C@H]1C(=O)Nc1ccc([C@H]2CC[C@H](c3ccc(NC(=O)[C@@H]4CCCN4C(=O)[C@@H](NC(=O)OC)C(C)C)cc3)N2c2ccc(C(C)(C)C)cc2)cc1)C(C)C | ≤ 0.05 | ≤ 0.05 | 0.1 | ≤ 0.05 | ≤ 0.05 | 0.2 | –
COC(=O)N[C@H](C(=O)N1CCC[C@H]1c1nc2cc([C@H]3CC[C@H](c4ccc5[nH]c([C@@H]6CCCN6C(=O)[C@@H](NC(=O)OC)C(C)C)nc5c4)N3c3ccc(N4CCCCC4)c(C#N)c3)ccc2[nH]1)C(C)C | ≤ 0.05 | ≤ 0.05 | 0.5 | ≤ 0.05 | 0.07 | 0.4 | –
CCOC(=O)N[C@H](C(=O)N1CCC[C@H]1c1nc2cc(-c3ccc(-c4ccc5nc([C@@H]6CCCN6C(=O)[C@@H](NC(=O)OCC)C(C)C)[nH]c5c4)nc3)ccc2[nH]1)C(C)C | – | – | – | – | – | – | EC50 (HCV genotype 1b replicon; 5% FBS and 40% human plasma, Table 3, read-out: EC50 (nM, in the presence of 5% FBS and 40% HP) 1b): 190 nM; EC50 (HCV genotype 1b replicon; 5% FBS, Table 3, read-out: EC50 (nM, in the presence of 5% FBS) 1b): 2.9 nM; EC50 (HCV genotype 1a replicon; 5% FBS and 40% human plasma, Table 3, read-out: EC50 (nM, in the presence of 5% FBS and 40% HP) 1a): 83 nM; EC50 (HCV genotype 1a replicon; 5% FBS, Table 3, read-out: EC50 (nM, in the presence of 5% FBS) 1a): 6.8 nM
